How the values were obtained:
leukocyte cell lines = assay: Cytotoxicity to leukocyte cell lines (similar procedures); type: cell-based
Protocol: (§1) Cytotoxicity assays. WI-L2 human B-lymphocyte line, HAAE-1 human abdominal aortic endothelial line, MH-S murine alveolar macrophage line, and J774A.1 murine tissue macrophage line were obtained from the ATCC. Human aortic endothelial cells (HAEC) and human vascular smooth muscle cells (VSMS) were obtained from Cambrex Bio Science. Jurkat E6-1T-lymphocytes were kindly provided by Dr. J. Kaye (The Scripps Research Institute). Cells were cultured in ATCC-recommended media with 10% fetal calf serum. Cells were incubated in a controlled atmosphere at 37° C., with 5 or 7% CO2. For lactate dehydrogenase (LDH) release assays, adherent cells were harvested either by addition of 0.05% trypsin/EDTA or by scraping. The cells obtained were seeded onto 96-well microtiter plates (25,000 cells/well) and allowed to recover for 24-48 h. Cells were washed gently and media replaced with fresh media containing 5% fetal calf serum. […] Cytotoxicity was then determined by measuring lactate dehydrogenase (LDH) release from cells in culture. […] 100% Cytotoxicity was defined as the maximum amount of LDH released by dead cells as shown by trypan blue exclusion, or the highest amount of LDH detected upon lysis of cells by 0.9% Triton X-100. The IC50 values were determined by comparison of the raw duplicate data for concentration versus cytotoxicity (%) to non-linear regression analysis (Hill plot) using Graphpad v3.0 software for Macintosh.

E-selectin = assay: Endothelial adhesion molecule expression ELISA, E-selectin; type: cell-based, human; conditions: HAAE-1, not complexed with LDL
Protocol: (§2) Endothelial cell surface adhesion molecule expression was measured by ELISA, using anti-human CD54 (ICAM-1), CD106 (VCAM-1) and CD62E (E-Selectin) antibodies (Leinco Technologies, Inc., St. Louis, Mo.). The ELISA method was modified from previously described procedures.
(§3) Cells were then incubated with antibodies to VCAM-1, E-selectin, or ICAM-1 diluted 1:400 in PBS containing 5% FCS at 37° C. for 30 min. Wells were washed two times with PBS, then incubated with horseradish peroxidase (HRP)-conjugated goat anti-mouse IgG (Southern Biotechnology Associates, Birmingham, Ala., USA) in PBS/5% FCS at 37° C. for 30 min. The wells were washed four times with PBS, then incubated with H2O2/3,3′,5,5′-tetramethyl-benzidine peroxidase substrate (Pierce Chemical, Rockford, Ill., USA) for 30 min in the dark. The reaction was stopped by adding 25 μl of 8 N H2SO4, and the plates read on a microplate reader, blanking on wells stained with only secondary antibody. Each assay was performed in triplicate and the data are reported as the mean±SEM as a percentage of the expression level of the vehicle. To study the effect of cholesterol ozonation product 5a concentration (5-50 μM) on E-selectin expression, the assay was performed in an identical fashion as described above, with each point being the mean±SEM of at least duplicate measurements.

[1] = tested on: T-lymphocyte cell line (Jurkat E6.1); assay: LDH release cytotoxicity assay, Jurkat; type: cell-based; conditions: T-cell (Jurkat) cell line, concentration range of FIG. 6B
Protocol: as §1, with “h.” for “h. Cells were washed gently and media replaced with fresh media containing 5% fetal calf serum.”, “Macintosh. […]” for “Macintosh.”

[2] = tested on: WI-L2 human B-lymphocyte line; assay: LDH release cytotoxicity assay, WI-L2; type: cell-based; conditions: B-cell (WI-L2) cell line, concentration range of FIG. 6A
Protocol: as §1
The following cell lines were employed in this study: a human B-lymphocyte (WI-L2) described in Levy et al., Cancer 22, 517 (1968); a T-lymphocyte cell line (Jurkat E6.1) described in Weiss et al., J. Immunol. 133, 123 (1984); a vascular smooth muscle cell line (VSMC) and an abdominal aorta endothelial (HAEC) cell line described in Folkman et al., Proc. Natl. Acad. Sci. U.S.A. 76, 5217 (1979); a murine tissue macrophage (J774A.1) described in Ralph et al., J. Exp. Med. 143, 1528 (1976); and an alveolar macrophage cell line (MH-S) described in Mbawuike et al., J. Leukoc. Biol. 46, 119 (1989).

VCAM-1 = assay: Endothelial adhesion molecule expression ELISA, VCAM-1; type: cell-based, human; conditions: HAAE-1, not complexed with LDL
Protocol: as §2, §3

THP-1 monocytes = assay: Monocyte morphology changes (differentiation into macrophages); type: cell-based, human; conditions: 12.5 or 25 μM, 7 days
Protocol: THP-1 monocytes in suspension were plated in 8-well chambered slides. […] Media containing appropriate treatment compounds was replaced after 4 days. […]

ICAM-1 = assay: Endothelial adhesion molecule expression ELISA, ICAM-1; type: cell-based, human; conditions: HAAE-1, not complexed with LDL
Protocol: as §2, §3

J774A.1 macrophages = assay: Uptake and localization in macrophages by fluorescence microscopy; type: cell-based, murine; conditions: 50 μM dansyl derivative, 5 min to 1 h; not complexed with LDL
Protocol: J774A.1 cells were plated in 8-well chambered slides (Nalge Nunc International). Cells were gently washed twice with PBS, pH 7.4 before 5 min or 1 h exposure to 50 μM dansyl derivative of cholesterol ozonation product 5d or 5e, dansyl cholesterol derivative 9c or 9d, or dansyl hydrazine diluted in media without FCS (0.05% v/v final DMSO concentration). [drawing 28] Media was removed by aspiration and cells were fixed immediately in 95% ice cold methanol for 5 min. Cells were mounted in glycerol containing Antifade reagent (Molecular Probes). Fluorescence images were documented using DeltaVision Deconvolution microscope (API, Issaquah WA) equipped with a Photometrics CH350L liquid cooled CCD camera attached to an Olympus IX—70 inverted microscope. […] All images were deconvolved using constrained iterative algorithms (10 iterations) of DeltaVision software (softWoRx, v2.5). The deconvolved images were subsequently processed using softWoRx, v2.5.
In some experiments, murine macrophage RAW 264.7 (ECACC 91062702) cells were grown in RPMI (Gibco) with 10% FCS at 37° C. with 5% CO2. For fluorescence imaging, cells were incubated on cover slips in 6-well chambered plates (Costar) for 12 h, gently washed 3 times in PBS at pH 7.4, and incubated with 50 μM dansyl derivative of cholesterol ozonation product 5d or 5e, dansyl cholesterol derivative 9c or 9d, in RPMI with 10% FCS for 5, 15, 30, and 60 min. A solution of the dansyl derivative was then added in DMSO [final DMSO, 0.05% (v/v)]. Media was removed by aspiration, and cells were washed twice with PBS, followed by fixing in paraformaldehyde (3.7% in PBS) for 10 min. Cover slips were mounted in MOWIOL 4-88 (Calbiochem). Microscopy was performed using an inverted Zeiss Axioscope 2 Plus fluorescence microscope, and images were obtained with a Zeiss Axiocam digital camera using Axiovision software (version 3.1). The data were collected using a 63× oil immersion lens and DAPI filter (excitation 360/emission 460), and images were processed with Axiovision software and Adobe software (Photoshop 6.0).

SMILES: CC(C)CCC[C@@H](C)[C@H]1CCC2C3C(CC[C@@]21C)[C@@]1(C)CCC=C[C@@]1(O)[C@@H]3C=O (stereo partly drawn) [7a, 5β-Hydroxy-B-norcholest-3-ene-6β-carboxaldehyde]
- cytotoxic to leukocyte cell lines (leukocyte cell lines): cytotoxic

SMILES: CC(C)CCC[C@@H](C)[C@H]1CC[C@H]2[C@@H]3CC=C4C[C@@H](O)CC[C@]4(C)[C@H]3CC[C@]12C [compound 3, cholesterol, reference compound]
- selectin (E-selectin) expression (E-selectin): no effects
- cytotoxicity [1]: No cytotoxicity
- cytotoxicity [2]: No cytotoxicity
- integrin (VCAM-1) expression (VCAM-1): no effects
- THP-1 cell adherence (differentiation into macrophages) (THP-1 monocytes): induced no cell adherence
- integrin (ICAM-1) expression (ICAM-1): no effects

SMILES: C[C@H](CCCC(=O)NS(=O)(=O)c1cccc2c(N(C)C)cccc12)[C@H]1CCC2C3C(CC[C@@]21C)C1(C)CC[C@H](O)CC1(O)[C@@H]3C=O (stereo partly drawn) [5e]
- uptake and localization in macrophages (J774A.1 macrophages): initial punctate cytosolic accumulation

SMILES: CC(C)CCC[C@@H](C)[C@H]1CCC2[C@H](CC=O)C([C@@]3(C)CCCCC(=O)O3)CC[C@@]21C (stereo partly drawn) [11a]
- cytotoxic to leukocyte cell lines (leukocyte cell lines): cytotoxic

SMILES: CC(C)CCC[C@@H](C)[C@H]1CCC2C3C(CC[C@@]21C)[C@@]1(C)CCC=C[C@@]1(O)[C@@H]3CO (stereo partly drawn) [7c]
- cytotoxic to leukocyte cell lines (leukocyte cell lines): cytotoxic

SMILES: CC(C)CCC[C@@H](C)[C@H]1CCC2[C@H](CC(=O)O)C([C@@]3(C)CC[C@H](O)CC3=O)CC[C@@]21C (stereo partly drawn) [10a]
- cytotoxic to leukocyte cell lines (leukocyte cell lines): cytotoxic

SMILES: CC(C)CCC[C@@H](C)[C@H]1CC[C@H]2[C@@H]3C(=O)C=C4C[C@@H](O)CC[C@]4(C)[C@H]3CC[C@]12C [7-KC, 7-ketocholesterol, reference compound]
- THP-1 cell adherence (differentiation into macrophages) (THP-1 monocytes): began to adhere after 4 days

SMILES: CC(C)CCC[C@@H](C)[C@H]1CCC2C(CC=O)C([C@@]3(C)CCC=CC3=O)CC[C@@]21C (stereo partly drawn) [6a, 5-Oxo-5,6-secocholest-3-en-6-al]
- cytotoxic to leukocyte cell lines (leukocyte cell lines): cytotoxic

SMILES: CC(C)CCC[C@@H](C)[C@H]1CCC2C3C(C=O)=C4C=CCC[C@]4(C)C3CC[C@@]21C (stereo partly drawn) [12a, B-norcholest-3,5-diene-6-carboxaldehyde]
- cytotoxic to leukocyte cell lines (leukocyte cell lines): cytotoxic

SMILES: C[C@H](CCCC(=O)NS(=O)(=O)c1cccc2c(N(C)C)cccc12)[C@H]1CCC2C3CC=C4C[C@@H](O)CCC4(C)C3CC[C@@]21C (stereo partly drawn) [9d, reference compound]
- uptake and localization in macrophages (J774A.1 macrophages): minimal fluorescence

— patent publication US20070059242A1, “METHODS TO IDENTIFY THERAPEUTIC AGENTS” (priority 2005, published 2007)
